Test results published in patent US20220305079A1, “THERAPEUTIC PEPTIDES” (COHBAR, INC., priority 2019, published 2022).
Square brackets hold non-standard residues; d marks the D form. Ends that are not written are not given here.

Columns and labels:
Mouse 3T3-L1 adipocytes = assay: Free Fatty Acid Levels in 3T3-L1 Adipocytes; settings: for Free Fatty Acid Levels in 3T3-L1 Adipocytes Expressed as a Percent Isoproterenol Control, Percent of Control Activity: test peptides 25 μM, 20-22 hours then isoproterenol (1 nM) 3 hours
Description: Mouse 3T3-L1 adipocytes were seeded at 3,000 cells per well in 96-well plates in Pre-adipocyte Medium (Zen-Bio, Durham, N.C.) and grown to confluence at 37° C. in a humidified atmosphere of 5% CO2/95% air. Two days after confluence, cells were placed in Adipocyte Differentiation Medium (Zen-Bio, Durham, N.C.) and cultured for three additional days at 37° C. in a humidified atmosphere of 5% CO2/95% air. The culture media was then replaced with Adipocyte Maintenance Medium (Zen-Bio) and the cells maintained for an additional 9-12 days at 37° C. in a humidified atmosphere of 5% CO2/95% air with partial medium replacement every other day. Following 12-15 days' differentiation, test peptides were added to a final concentration of 25 μM and incubated for 20-22 hours in Adipocyte Maintenance Medium. After 20-22 hours, isoproterenol (1 nM) was added to all wells except untreated controls and test peptides were replenished. Cells were incubated for a further 3 hours in Assay Buffer (Zen-Bio). Free fatty acid concentrations in the media were determined using a Free Fatty Acid Assay Kit (Zen-Bio) according to the manufacturer's instructions using a plate reader (540 nm). Absorbance values were corrected for untreated background and expressed relative to isoproterenol treated cells. Treatment with isoproterenol (1 nM) alone was used as the free fatty acid level stimulatory control. The relative standard deviation of the isoproterenol control was <10%.

[1] = tested on: MDA-MB-231 human breast cancer cell line; assay: Caspase 3/7 Activity in MDA-MB-231 Cells (Caspase-Glo 3/7 Assay); format: cell-based; settings: test peptides at 10 μM, 18 hours, relative to DMSO control
Description: The effect of the peptides on cell death/survival can be assessed using a caspase-3 assay. Peptides were dissolved with DMSO at 10 mM stock. […] Staurosporine (Selleckchem) was dissolved with DMSO at 1 mM stock. Caspase-Glo 3/7 Assay Reagent was purchased from Promega (Madison, Wis.). MDA-MB-231 human breast cancer cell line was purchased from American Type Culture Collection (Manassas, Va.). MDA-MB-231 cells were grown in DMEM Medium supplemented with 10% FBS. 100 μg/ml penicillin and 100 μg/ml streptomycin were added to the culture medium. […] 25 μl of Caspase-Glo 3/7 Assay Reagent was added to each well and incubated at 37° C., 5% CO2 for 1 hour. Luminescence for each sample well on the plate was measured by Envision 2104 Multilabel Reader (PerkinElmer, Santa Clara, Calif.). Activity was calculated relative to DMSO control.

[2] = tested on: MDA-MB-231 human breast cancer cell line; assay: MTS Assay in MDA-MB-231 Cells (cell viability); format: cell-based; settings: 72 hours, relative to DMSO control; test concentration not given
Description: (§1) Test compounds and reference compound staurosporine (Selleckchem) were all dissolved with DMSO at 10 mM stock. […] Activity was calculated relative to DMSO control. […] Cell viability was 3% of the DMSO control value for Staurosporine (10 uM).

[3] = tested on: MCF-7 human breast cancer cell line; assay: MTS Assay in MCF-7 Cells (cell viability); settings: test peptides at 10 μM, 72 hours, relative to DMSO control
Description: (§2) Peptides and reference compound staurosporine (Selleckchem) were dissolved with DMSO at 10 mM stock. CellTiter 96® AQueous One Solution Reagent (MTS assay reagent) was purchased from Promega (Madison, Wis.). MCF-7 human breast cancer cell line was purchased from American Type Culture Collection (Manassas, Va.). MCF-7 cells were grown in EMEM Medium supplemented with 10% FBS and 0.01 mg/ml human recombinant insulin. 100 μg/ml penicillin and 100 μg/ml streptomycin were added to the culture medium. […] 5 μl of CellTiter 96® AQueous One Solution Reagent (MTS assay reagent) was added to each well and incubated at 37° C., 5% CO2 for 5 hours. Absorbance at 492 nm was recorded by Envision 2104 Multilabel Reader. Treatment with DMSO alone was used as the cell viability activity control.

[4] = MTS Assay in MDA-MB-231 Cells (cell viability); format: cell-based, human; settings: human; Staurosporine 10 uM, positive control, MDA-MB-231 cells; read-out: Cell viability, % of the DMSO control value
Description: as §1

[5] = MTS Assay in MCF-7 Cells (cell viability); settings: human
Description: as §2

Row | Compound | Free Fatty Acid Levels in 3T3-L1 Adipocytes Expressed as a Percent Isoproterenol Control, Percent of Control Activity (Mouse 3T3-L1 adipocytes) [%] | further results
1 | 9 (WFDYFCMSPSIDEGLTL) [compound 9] | 35 | –
2 | 23 (VWLRLSGSKVEWVWG) [compound 23] | 71 | –
3 | 10 (WFDYFAMSPSADEGLTL) [compound 10] | 55 | –
4 | 22 (MVWLRLSGSKVEWVWG) [compound 22] | 93 | Caspase 3/7 Activity in MDA-MB-231 Cells, Percent of Control Activity [1]: 31%; MTS Assay in MDA-MB-231 Cells, Percent of Control Activity [2]: 75%; MTS Assay in MCF-7 Cells, Percent of Control Activity [3]: 47%
5 | 8 (WFDYFCMSPSIDEGLTLLV) [compound 8] | 45 | –
6 | insulin [reference compound] | – | Free fatty acid levels, % of the isoproterenol control value (Mouse 3T3-L1 adipocytes; insulin 100 nM, positive control): < 5%
7 | 14 (VKGDSKYSEACRRV) [compound 14] | 112 | –
8 | 20 (LFFRSSKLQYGRLFRSA) [compound 20] | 73 | –
9 | 2 (MTHQSHAYHIVKPSP) [compound 2] | 95 | Caspase 3/7 Activity in MDA-MB-231 Cells, Percent of Control Activity [1]: 51%; MTS Assay in MDA-MB-231 Cells, Percent of Control Activity [2]: 85%; MTS Assay in MCF-7 Cells, Percent of Control Activity [3]: 71%
10 | 4 (THQSH[dA]YHIVKPSP) [compound 4] | 134 | –
11 | 17 (MVLFFRSSKLQYGRLFRSLVG) [compound 17] | 75 | Caspase 3/7 Activity in MDA-MB-231 Cells, Percent of Control Activity [1]: 43%; MTS Assay in MDA-MB-231 Cells, Percent of Control Activity [2]: 75%; MTS Assay in MCF-7 Cells, Percent of Control Activity [3]: 40%
12 | 18 (VLFFRSSKLQYGRLFRSLVG) [compound 18] | 84 | –
13 | 25 ([dA]WLRLSGSKVEWV) [compound 25] | 93 | –
14 | 5 (HQSH[dA]YHIVKPSP) [compound 5] | 111 | –
15 | 12 (MVKGDSKYSEACRRVK) [compound 12] | 135 | Caspase 3/7 Activity in MDA-MB-231 Cells, Percent of Control Activity [1]: 52%; MTS Assay in MDA-MB-231 Cells, Percent of Control Activity [2]: 80%; MTS Assay in MCF-7 Cells, Percent of Control Activity [3]: 50%
16 | 24 (VWLRLSGSKVEWVW; not fully specified) [compound 24] | 81 | –
17 | 15 (VKGDSKYSEACR) [compound 15] | 128 | –
18 | 13 (VKGDSKYSEACRRVK) [compound 13] | 113 | –
19 | 19 (VLFFRSSKLQYGRLFRSLA) [compound 19] | 95 | –
20 | CN[C@@H]1C[C@H]2O[C@@](C)([C@@H]1OC)n1c3ccccc3c3c4c(c5c6ccccc6n2c5c31)C(=O)NC4 [staurosporine, reference compound] | – | viability at 72 h, 10 µM [4]: 3%; viability at 72 h, 10 µM [5]: < 5%
21 | 3 (THQSHAYHIVKPSP; not fully specified) [compound 3] | 118 | –
22 | 7 (MWFDYFCMSPSIDEGLTLLV) [compound 7] | 104 | Caspase 3/7 Activity in MDA-MB-231 Cells, Percent of Control Activity [1]: 29%; MTS Assay in MDA-MB-231 Cells, Percent of Control Activity [2]: 81%; MTS Assay in MCF-7 Cells, Percent of Control Activity [3]: 63%
